The record followed here is PubChem BioAssay (NCI).

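Each compound was tested at five concentrations against cells in 96-well plates for 48 hours. TGI: concentration producing complete growth inhibition.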

Some test systems named below: KM20L2 colon; XF 498 CNS; LXFL 529 NSCLC; M19-MEL melanoma; RXF-631 renal; DMS 273 small cell lung; DLD-1 colon; SNB-78 CNS; HOP-18 NSCLC.
Holding throughout (assay): growth of human tumour cells (NCI), 48 h

Turning to `CCCc1cc(OC(=O)c2c(O)cc(OC)cc2CCC)cc(O)c1C(=O)O`, the TGI in the experiment on KM20L2 colon was over 100 µM; in the experiment on XF 498 CNS it was 74.4 µM; in the experiment with LXFL 529 NSCLC, 62.9 µM; in the experiment with M19-MEL melanoma, over 100 µM; in the experiment on RXF-631 renal, 63.8 µM; in the experiment with DMS 273 small cell lung it was 95.7 µM. The figures for the TGI in the experiment on DLD-1 colon and in the experiment on SNB-78 CNS were over 100 µM and 64.1 µM, respectively.

`COc1ccc(C2Cc3cc(OC)c(OC)c(OC)c3C2)cc1` (centres undefined): the TGI in the experiment on KM20L2 colon is over 100 µM; with XF 498 CNS, 54.5 µM; in the experiment on M19-MEL melanoma, over 100 µM; with HOP-18 NSCLC, over 100 µM; in the experiment on DMS 273 small cell lung, over 100 µM; in the experiment with DLD-1 colon, over 100 µM. This molecule displayed a TGI in the experiment on SNB-78 CNS of over 100 µM.

As to `O=[N+]([O-])c1cccc(Nc2nc(Cl)nc(Cl)n2)c1`, the TGI in the experiment with KM20L2 colon, in the experiment with XF 498 CNS, in the experiment with LXFL 529 NSCLC, with M19-MEL melanoma, in the experiment on RXF-631 renal and in the experiment on DMS 273 small cell lung was over 100 µM each time. Further, the TGI in the experiment on DLD-1 colon and in the experiment with SNB-78 CNS was over 100 µM in each case.

`CCOC(=O)C1=C(OC(OCC)C(CC)[Se]c2ccccc2)CCC1` (centres undefined): the TGI was over 100 µM in the experiment on KM20L2 colon; 46.8 µM in the experiment with XF 498 CNS; 77 µM in the experiment on LXFL 529 NSCLC; 30.8 µM in the experiment on M19-MEL melanoma; 32.9 µM in the experiment on RXF-631 renal; 69.5 µM in the experiment on HOP-18 NSCLC. Also, the TGI with DMS 273 small cell lung was found to be 29.2 µM; in the experiment on DLD-1 colon it was 45.4 µM; with SNB-78 CNS, 97.4 µM.

`COC(=O)/C=C(\C)CCC1SC1(C)C` (centres undefined): the TGI in the experiment with KM20L2 colon, with XF 498 CNS, in the experiment with LXFL 529 NSCLC, in the experiment with M19-MEL melanoma, in the experiment on HOP-18 NSCLC and in the experiment on DMS 273 small cell lung was over 100 µM in each case. Moreover, the TGI with DLD-1 colon and in the experiment with SNB-78 CNS was over 100 µM each time.

With `Cc1ccc(C(=O)Oc2ccccc2)cc1N=NN(C)C`, the TGI with KM20L2 colon, in the experiment with LXFL 529 NSCLC, with M19-MEL melanoma, with DMS 273 small cell lung, in the experiment with DLD-1 colon and in the experiment on SNB-78 CNS was over 100 µM throughout.

As for `Cc1ccc(-c2cc(-c3ccccc3)c(C#N)c(=O)[nH]2)cc1`, the TGI with KM20L2 colon, with LXFL 529 NSCLC, in the experiment on M19-MEL melanoma, in the experiment with RXF-631 renal, in the experiment with HOP-18 NSCLC and in the experiment on DMS 273 small cell lung was over 100 µM each time. Besides, the TGI in the experiment on DLD-1 colon and in the experiment with SNB-78 CNS was over 100 µM each time.

For the molecule `CCCNCCCCC(NC(C)=O)C(=O)NCc1ccccc1` (centres undefined), the TGI with KM20L2 colon, with XF 498 CNS, in the experiment on LXFL 529 NSCLC, with M19-MEL melanoma, with RXF-631 renal and in the experiment on DMS 273 small cell lung was over 100 µM each time. In addition, the TGI with DLD-1 colon and in the experiment with SNB-78 CNS was over 100 µM in each case.

As to `CCCCOC/N=C(/N)NC#N`, the TGI with KM20L2 colon, in the experiment with XF 498 CNS, in the experiment with LXFL 529 NSCLC, in the experiment with RXF-631 renal, in the experiment on HOP-18 NSCLC and with DMS 273 small cell lung was over 100 µM throughout. Further, the TGI in the experiment with DLD-1 colon and with SNB-78 CNS was over 100 µM in each case.

For `CN1CCc2ccccc2C(C(=O)c2ccc3c(c2)OCO3)C1=O` (centres undefined), the TGI in the experiment on KM20L2 colon, in the experiment on XF 498 CNS, in the experiment with LXFL 529 NSCLC, in the experiment on M19-MEL melanoma, in the experiment with RXF-631 renal and in the experiment with HOP-18 NSCLC was over 100 µM in each case. Besides, the TGI in the experiment on DMS 273 small cell lung and with DLD-1 colon was over 100 µM in each case.

With `COc1cc([C@@H]2c3cc4c(cc3[C@@H](NCc3cccc(C#N)c3)C3COC(=O)[C@@H]32)OCO4)cc(OC)c1O` (some centres undefined), the TGI with KM20L2 colon was 4.63 µM; with LXFL 529 NSCLC, over 100 µM; in the experiment on M19-MEL melanoma it was 50.3 µM; in the experiment on RXF-631 renal it was 4.64 µM; in the experiment with HOP-18 NSCLC it was over 100 µM; with DMS 273 small cell lung, 5.89 µM. In the experiment on DLD-1 colon, this molecule returned a TGI of 12.7 µM.

As for `COc1ccc2[nH]c3c(c2c1)[C@H]1CCC(C(C)(C)C)C[C@H]1[C@H]1C(=O)N(c2ccccc2)C(=O)[C@@H]31` (some centres undefined), the TGI is over 100 µM in the experiment with KM20L2 colon; 31 µM with XF 498 CNS; over 100 µM with LXFL 529 NSCLC; over 94.2 µM with M19-MEL melanoma; 57.5 µM with RXF-631 renal; 99.6 µM in the experiment on HOP-18 NSCLC. Further, the TGI in the experiment with DMS 273 small cell lung was over 100 µM; in the experiment with DLD-1 colon, over 96.2 µM.

As for `CCCCCCCCC(O)c1ccc(/C=C\C(O)CCCC(=O)O)s1` (centres undefined), the TGI with KM20L2 colon, in the experiment with XF 498 CNS, in the experiment with LXFL 529 NSCLC, in the experiment on M19-MEL melanoma, with HOP-18 NSCLC and in the experiment with DMS 273 small cell lung was over 100 µM in each case. The TGI with DLD-1 colon and with SNB-78 CNS was over 100 µM in each case.

For the molecule `CCOC(=O)CCC(NC(=O)c1ccc(NC(OC)c2nc3cc(C(F)(F)F)ccc3nc2-c2ccccc2)cc1)C(=O)OCC` (centres undefined), the TGI is 27.2 µM in the experiment with KM20L2 colon; 20.3 µM in the experiment with LXFL 529 NSCLC; 29.2 µM in the experiment with M19-MEL melanoma; 29.2 µM in the experiment on RXF-631 renal; 44.5 µM in the experiment on HOP-18 NSCLC; 21 µM in the experiment on DMS 273 small cell lung. For the same molecule, the values for the TGI in the experiment with DLD-1 colon and with SNB-78 CNS were 24.1 µM and 37.3 µM, respectively.
